Data from PubChem BioAssay (NCI).
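Each compound was tested at five concentrations against cells in 96-well plates for 48 hours. GI50: concentration for 50% inhibition of growth. At the TGI there is no net growth.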

How the values were obtained:
Experiment in all cases: NCI-60 cell line screen, 48 h
A549 NSCLC = test system: A549 NSCLC
EKVX NSCLC = test system: EKVX NSCLC
NCI-H226 lung = test system: NCI-H226 lung
NCI-H460 lung = test system: NCI-H460 lung
OVCAR-3 ovarian = test system: OVCAR-3 ovarian
SF-539 CNS = test system: SF-539 CNS
U251 CNS = test system: U251 CNS
UACC-62 melanoma = test system: UACC-62 melanoma
M14 melanoma = test system: M14 melanoma
RXF 393 renal = test system: RXF 393 renal

| SMILES | TGI (A549 NSCLC) | TGI (EKVX NSCLC) | TGI (NCI-H226 lung) | TGI (NCI-H460 lung) | TGI (OVCAR-3 ovarian) | TGI (SF-539 CNS) | TGI (U251 CNS) | TGI (UACC-62 melanoma) | GI50 (A549 NSCLC) | GI50 (M14 melanoma) | TGI (M14 melanoma) | GI50 (NCI-H226 lung) | GI50 (NCI-H460 lung) | GI50 (OVCAR-3 ovarian) | GI50 (RXF 393 renal) | TGI (RXF 393 renal) | GI50 (SF-539 CNS) | GI50 (U251 CNS) | GI50 (UACC-62 melanoma) | GI50 (EKVX NSCLC) |
| --- | --- | --- | --- | --- | --- | --- | --- | --- | --- | --- | --- | --- | --- | --- | --- | --- | --- | --- | --- | --- |
| N#CCCN(c1ccc(-c2nnc(NC(=O)CNNC(=O)CC(=O)Nc3ccccc3)s2)cc1)S(=O)(=O)c1ccccc1 | > 100 µM | > 100 µM | > 100 µM | > 100 µM | > 100 µM | > 100 µM | > 100 µM | > 100 µM | – | – | – | – | – | – | – | – | – | – | – | – |
| Cn1cc(C2=C(c3cn(CCN)c4ccccc34)C(=O)NC2=O)c2ccccc21 | > 25 µM | – | 18.1 µM | > 25 µM | > 23.9 µM | 13.9 µM | > 20.5 µM | 17.2 µM | 6.75 µM | 6.15 µM | 19.5 µM | 4.44 µM | 7.54 µM | 7.47 µM | 3740 nM | 10.1 µM | 4.83 µM | 5.61 µM | 5.9 µM | – |
| COc1cc(C(=O)c2cc3c(cc2C)OCO3)cc(OC)c1OC | > 100 µM | – | > 100 µM | > 33.2 µM | – | 0.376 µM | > 100 µM | > 100 µM | 0.125 µM | 0.0671 µM | > 100 µM | 0.554 µM | 0.124 µM | 0.0765 µM | 51.5 nM | > 100 µM | 0.0617 µM | 0.158 µM | 0.247 µM | – |
| C[C@@H]1C=C2C(=O)O[C@@H]3CC[C@H](C1)[C@]23O | 47 µM | – | 40 µM | 32 µM | 11.1 µM | 11.9 µM | 27.5 µM | 19.6 µM | 12.7 µM | 4.28 µM | 22.8 µM | 7.02 µM | – | 3.44 µM | – | 7.97 µM | 3.18 µM | 13.9 µM | 4.78 µM | – |
| C=C(C)[C@@H]1CC[C@]2(C)[C@H](CC[C@@H]3[C@H]4[C@H]5OC[C@@]4(CCC5(C)C)CC[C@]32C)[C@@]1(C)CCCN | 3.37 µM | 3.31 µM | – | 3.39 µM | 3.07 µM | 3.22 µM | 3.15 µM | 3.12 µM | 1.69 µM | 1.79 µM | 3.58 µM | – | 1.8 µM | 1.68 µM | 1640 nM | 3.07 µM | 1.78 µM | 1.67 µM | 1.71 µM | 1810 nM |
| NCCNC(=S)S | > 100 µM | > 100 µM | > 100 µM | – | > 100 µM | – | > 100 µM | > 100 µM | – | – | > 100 µM | – | – | – | – | > 100 µM | – | – | – | – |
| COc1cc2nc(Nc3cccc(F)c3)nc(Nc3cc(C)[nH]n3)c2cc1OC | – | 3.41 µM | – | 3.74 µM | 3.41 µM | 3.18 µM | 3.73 µM | 3.66 µM | – | 1.64 µM | 3.22 µM | – | 1.83 µM | 1.82 µM | 1810 nM | 3.22 µM | 1.78 µM | 1.82 µM | 1.85 µM | 1750 nM |
| Cc1[nH]c(=O)[nH]c(=O)c1CO | > 100 µM | – | – | > 100 µM | > 100 µM | > 100 µM | > 100 µM | > 100 µM | > 100 µM | > 100 µM | > 100 µM | – | > 100 µM | > 100 µM | > 100000 nM | > 100 µM | > 100 µM | > 100 µM | > 100 µM | – |
| CCCc1nc2c(C)cc(-c3nc4ccccc4n3C)cc2n1Cc1ccc(-c2ccccc2C(=O)O)cc1 | > 100 µM | – | > 100 µM | > 100 µM | 37.3 µM | > 100 µM | 51.8 µM | > 100 µM | 22.8 µM | 34.5 µM | > 100 µM | 32.4 µM | 32.5 µM | 14.7 µM | 22400 nM | 82.2 µM | 46.5 µM | 20.2 µM | 22.4 µM | – |
| CC1C=CC(=O)C(n2cc(F)c(=O)[nH]c2=O)O1 (stereo unspecified) | 70.8 µM | 50.9 µM | – | 54.2 µM | 31.2 µM | 31.2 µM | 29.5 µM | 31.7 µM | – | – | 36.7 µM | – | – | – | – | 37.8 µM | – | – | – | – |
| COc1cc(-n2cc(-c3ccc(Cl)cc3)[nH]c2=O)cc(OC)c1OC | > 100 µM | > 100 µM | 83.3 µM | > 100 µM | 50.1 µM | 49.2 µM | 45.1 µM | 64.1 µM | 34.6 µM | 94.1 µM | > 100 µM | 33.2 µM | 39.6 µM | 21 µM | – | – | 23.8 µM | 20.9 µM | 23 µM | 34100 nM |
| COc1ccc(/C(C)=N/OC(=O)c2c(-c3ccccc3Cl)noc2C)cc1CN1CCOCC1 | 50.9 µM | – | > 100 µM | > 100 µM | 68.4 µM | 56.7 µM | 97.7 µM | 30 µM | – | – | 28 µM | – | – | – | – | 77.8 µM | – | – | – | – |
